Results published in patent US20220386606A1, “SPECIFICALLY SUBSTITUTED 3-PHENYL-5-SPIROCYCLOPENTYL-3-PYRROLIN-2-ONES AND THEIR USE AS HERBICIDES” (Bayer Aktiengesellschaft, priority 2019, published 2022).

What was measured:
[1] = test system: DIGSA; assay: Pre-emergence herbicidal action against DIGSA; format: in vivo, Digitaria sanguinalis; conditions: 320 g/ha, scored visually after 3 weeks vs untreated controls
Method in brief: (§1)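 Percent activity (0% = like control, 100% = dead) read visually after a 3-week greenhouse period. Application: aqueous WP or EC formulations sprayed onto soil covering sown seeds, water rate 600 to 800 L/ha with 0.2% wetting agent.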

[2] = test system: DIGSA; assay: Post-emergence herbicidal action against DIGSA; format: in vivo, Digitaria sanguinalis; conditions: 80 g/ha, visual assessment about 3 weeks after treatment vs untreated controls
Method in brief: (§2)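 Plants at the one-leaf stage receive a foliar spray of the formulated compound, with a 600 to 800 l/ha water rate and 0.2% wetting agent. Percent activity is judged by eye after roughly 3 weeks in the greenhouse.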

[3] = test system: AVEFA; assay: Post-emergence herbicidal action against AVEFA; format: in vivo, Avena fatua; conditions: 80 g/ha, visual assessment after about 3 weeks
Method in brief: as §2

[4] = test system: AMARE; assay: Pre-emergence herbicidal action against AMARE; format: in vivo, Amaranthus retroflexus; conditions: 320 g/ha
Description: (§3) Seeds of monocotyledonous and dicotyledonous weed plants and crop plants are laid out in sandy loam soil in wood-fiber pots and covered with soil. The compounds of the invention, formulated in the form of wettable powders (WP) or as emulsion concentrates (EC), are then applied to the surface of the covering soil as aqueous suspension or emulsion at a water application rate equating to 600 to 800 L/ha with addition of 0.2% wetting agent.
(§4) After the treatment, the pots are placed in a greenhouse and kept under good growth conditions for the trial plants. The damage to the test plants is scored visually after a test period of 3 weeks by comparison with untreated controls (herbicidal activity in percent (%): 100% activity=the plants have died, 0% activity=like control plants).

[5] = test system: ALOMY; assay: Post-emergence herbicidal action against ALOMY; format: in vivo, Alopecurus myosuroides; conditions: 80 g/ha, visual assessment after about 3 weeks
Method in brief: as §2

[6] = test system: LOLRI; assay: Pre-emergence herbicidal action against LOLRI (Table 8, titled post-emergence at 320 g/ha); format: in vivo, Lolium rigidum; conditions: table stands in the pre-emergence section
Method in brief: as §1

[7] = test system: SETVI; assay: Post-emergence herbicidal action against SETVI; format: in vivo, Setaria viridis; conditions: 80 g/ha, visual assessment about 3 weeks after treatment vs untreated controls
Method in brief: as §2

[8] = test system: AVEFA; assay: Pre-emergence herbicidal action against AVEFA; format: in vivo, Avena fatua; conditions: 320 g/ha, scored visually after 3 weeks vs untreated controls
Method in brief: as §1

[9] = test system: SETVI; assay: Pre-emergence herbicidal action against SETVI; format: in vivo, Setaria viridis; conditions: 320 g/ha, scored visually after 3 weeks vs untreated controls
Method in brief: as §1

[10] = test system: ECHCG; assay: Pre-emergence herbicidal action against ECHCG; format: in vivo, Echinochloa crus-galli; conditions: 320 g/ha, scored visually after 3 weeks vs untreated controls
Method in brief: as §1

[11] = test system: VERPE; assay: Pre-emergence herbicidal action against VERPE; format: in vivo, Veronica persica; conditions: 320 g/ha
Description: as §3, §4

[12] = test system: LOLRI; assay: Post-emergence herbicidal action against LOLRI; format: in vivo, Lolium rigidum; conditions: 80 g/ha, visual assessment about 3 weeks after treatment vs untreated controls
Method in brief: as §2

[13] = test system: ALOMY; assay: Pre-emergence herbicidal action against ALOMY; format: in vivo, Alopecurus myosuroides; conditions: 320 g/ha, scored visually after 3 weeks vs untreated controls
Method in brief: as §1

[14] = test system: VIOTR; assay: Pre-emergence herbicidal action against VIOTR; format: in vivo, Viola tricolor; conditions: 320 g/ha
Description: as §3, §4

[15] = test system: ECHCG; assay: Post-emergence herbicidal action against ECHCG; format: in vivo, Echinochloa crus-galli; conditions: 80 g/ha, visual assessment about 3 weeks after treatment vs untreated controls
Method in brief: as §2

[16] = test system: MATIN; assay: Pre-emergence herbicidal action against MATIN; format: in vivo; conditions: 320 g/ha
Description: as §3, §4

Compound | Pre-emergence action against DIGSA in % [1] [%] | Post-emergence action against DIGSA in % [2] [%] | Post-emergence action against AVEFA in % [3] [%] | Pre-emergence action against AMARE in % [4] [%] | Post-emergence action against ALOMY in % [5] [%] | Pre-emergence herbicidal action against LOLRI in % [6] [%] | Post-emergence action against SETVI in % [7] [%] | Pre-emergence action against AVEFA in % [8] [%] | Pre-emergence action against SETVI in % [9] [%] | Pre-emergence action against ECHCG in % [10] [%] | Pre-emergence action against VERPE in % [11] [%] | Post-emergence action against LOLRI in % [12] [%] | Pre-emergence action against ALOMY in % [13] [%] | Pre-emergence action against VIOTR in % [14] [%] | Post-emergence action against ECHCG in % [15] [%] | Pre-emergence action against MATIN in % [16] [%]
CC#Cc1cc(C)c(C2=C(OC(=O)C(C)C)C3(CCC(COCC)C3)NC2=O)c(OC)c1 (centres unmarked) [Example P-50] | 100 | 90 | 90 | 100 | 100 | 100 | 100 | 100 | 100 | 100 | 80 | 100 | 100 | 100 | 100 | 
C#CCOCC1CCC2(C1)NC(=O)C(c1c(F)cc(C#CC)cc1OC)=C2O (centres unmarked) [Example I-75] | 100 | 90 | 90 | 80 | 90 | 100 | 100 | 100 | 100 | 90 |  | 90 | 90 |  | 100 | 90
C#CCOCC1CCC2(C1)NC(=O)C(c1c(C)cc(C#CC)cc1Cl)=C2OC(=O)OCC (centres unmarked) [Example P-99] | 100 | 90 | 80 | 100 | 100 | 100 | 100 | 100 | 100 | 100 | 100 | 90 | 100 | 100 | 100 | 
C#CCOCC1CCC2(C1)NC(=O)C(c1c(C)cc(C#CC)cc1OC)=C2OC(=O)OCC (centres unmarked) [Example P-101] | 100 | 90 | 80 | 100 | 100 | 100 | 100 | 100 | 100 | 100 |  | 100 | 100 | 80 | 100 | 80
CC#Cc1cc(F)c(C2=C(OC(=O)OCC)C3(CCC(COCCC)C3)NC2=O)c(OC)c1 (centres unmarked) [Example P-84] | 100 | 90 | 80 |  |  | 100 | 100 | 80 | 100 | 100 |  | 80 | 100 | 80 | 100 | 80
CC#Cc1cc(C)c(C2=C(OC(=O)OCC)C3(CCC(COCCOC)C3)NC2=O)c(OC)c1 (centres unmarked) [Example P-79] | 100 | 90 | 90 | 80 | 100 | 100 | 100 | 100 | 100 | 100 | 90 | 90 | 100 | 100 | 100 | 
CC#Cc1cc(C)c(C2=C(O)C3(CCC(COCCC)C3)NC2=O)c(OC)c1 (centres unmarked) [Example I-59] | 100 | 100 | 90 | 100 | 100 | 100 | 100 |  | 100 | 100 |  | 90 | 100 | 100 | 100 | 80
C#CCOCC1CCC2(C1)NC(=O)C(c1c(C)cc(C#CC)cc1OC)=C2O (centres unmarked) [Example I-77] | 100 | 90 | 90 | 100 | 100 | 100 | 100 | 100 | 100 | 100 |  | 90 | 100 |  | 100 | 80
CC#Cc1cc(C)c(C2=C(OC(=O)C(C)C)C3(CCC(COCC)C3)NC2=O)c(Br)c1 (centres unmarked) [Example P-37] | 100 | 100 | 90 | 100 | 100 | 100 | 100 | 80 | 100 | 100 | 80 | 100 | 100 | 100 | 100 | 
C=CCOCC1CCC2(C1)NC(=O)C(c1c(C)cc(C#CC)cc1Br)=C2O (centres unmarked) [Example I-67] | 100 | 90 |  |  | 100 | 100 | 90 | 80 | 100 | 100 |  | 90 | 100 | 100 | 90 | 80
